Key:
BL3750 lymphoma cells = assay: BL3750 lymphoma model; format: in vivo, mouse
Protocol: Lymphoma model. BL3750 lymphoma cells were as described (Minard-Colin et al., 2008). This lymphoma model is accepted by those skilled in the art as a standard model for human lymphoma disease. For each experiment, tumor cells were thawed and expanded for 24-48 hours in complete medium (RPMI 1640 media containing 20% fetal bovine serum, 100 U/ml penicillin, 100 μg/ml streptomycin, 2 mM L-glutamine, and 55 μM 2-mercaptoethanol). BL3750 cells in 250 μl PBS were injected subcutaneously into the dorsal skin of recipient mice on day 0. This mouse model of lymphoma is a standard animal model for human lymphoma used and accepted by those skilled in the art. Mice were then given purified mAb in 250 μl of PBS intravenously, and starting on day 7 were monitored daily for tumor development and progression, and survival. Tumor measurements were as described (Minard-Colin et al., 2008).
CD20 immunotherapy and TLR agonist treatments. […] In some experiments, mice were treated with anti-NK1.1 mAb (100 g) on day −4 and day 3 for N K cell depletion. Macrophage deficiency was generated by tail vein injections of clodronate-encapsulated liposomes (Sigma-Aldrich) or control PBS-encapsulated liposomes (Van Rooijen and Sanders, 1994) 0.2 ml given on day −1 and 0.1 ml given on days 2, 5, and 9 (FIG. 3B) or 0.2 ml given on days −2, 1, and 4 (FIG. 3C).

[1] = tested on: bone marrow CD11b+ monocytes; assay: TLR-induced TNF-α production by CD11b+ bone marrow cells; format: cell-based, mouse; conditions: TLR agonists 25 μg/ml, 4 h, Brefeldin A
Protocol: (§1) For IL-10 detection, mouse spleen or blood mononuclear cells, BL3750 tumor cells, or human blood were resuspended (2×10^6 cells/ml) in complete medium [RPMI 1640 media (Cellgro, Herndon, Va.) containing 10% FCS (Sigma, St. Louis, Mo.). […]. 4 mM L-Glutamine (all Cellgro), and 55 μM 2-mercaptoethanol (Invitrogen, Carlsbad. CA)] with lipopolysaccharide (LPS, 10 μg/ml, Escherichia coli serotype 0111: B4, Sigma), phorbol myristate acetate (PMA, 50 ng/ml; Sigma), ionomycin (500 ng/ml; Sigma), and monensin (2 μM; eBioscience) for 5 h. B10 progenitor cells were induced to mature and acquire IL-10 competence in vitro by culturing the cells with LPS (10 μg/ml), CpG (human ODN 2006, 10 μg/ml; Invivogen, San Diego, Calif., mouse ODN 1668, 10 μg/ml; Integrated DNA Technologies, Coralville, Iowa), or poly I:C (Invivogen) for 48 h with the addition of monensin, PMA and ionomycin for the last 5 h of culture. For TNF-α detection, bone marrow cells were resuspended (2×10^6 cells/ml) in complete medium with Brefeldin A (1 μl; Biolegend) and TLR agonists (25 μg/ml) for 4 h. Before cell surface staining, Fc receptors were blocked using Fc receptor mAb (2.4G2; BD Biosciences), and dead cells were labeled using a LIVE/DEAD® Fixable Green Dead Cell Stain Kit (Invitrogen-Molecular Probes). […]

FcγRII/III = FcγRII/III expression by innate effector cells after TLR agonist treatment; format: in vivo, mouse; conditions: splenocytes 18 h after treatment
Protocol: FIG. 4 is a set of graphs showing that TLR agonists induce monocyte activation and enhance CD20 mAb-induced B cell depletion. […] Splenocytes were isolated from mice 18 h later and analyzed for FcγRII/III expression by immunofluorescence staining. For FIGS. 4A-B the results represent 2 independent experiments. […] B1b and B2 cells were distinguished based on their differential expression of CD11b. […] Representative peritoneal lymphocytes of CpG-treated MyD88^-/- or wild type mice following CD20 or control mAb (25 μg) treatment. Percentages (±SEM) represent mean B220^+ cell frequencies within the indicated gates 7 days after CD20 mAb treatment (≧3 mice per value) relative to control mAb-treated littermates (n=3). In FIG. 4C-E significant differences between sample means are indicated; *p<0.05, **p<0.01. Results represent 3-4 independent experiments. Immunofluorescence analysis. CD20 expression was visualized using biotin-conjugated mouse CD20 (MB20-11) mAb (Uchida et al., 2004b) plus phycoerythrin-Cy5 (PE-Cy5) streptavidin (eBioscience, San Diego, Calif.). Other mAbs included: B220 (RA3-6B2), CD1d (1B1), CD5 (53-7.3), CD19 (1D3), NK1.1 (PK136), and I-A/I-E (M5/114.15.2) from BD Biosciences (San Jose, Calif.). CD11b (M1/70), CD86 (GL1), F4/80 (BM8), IgM (II/41), Gr-1 (RB6-8C5), and IL-10 (JES5-16E3) mAbs were from eBioscience. TNF-α (MP6-XT22) mAb was from Biolegend (San Diego, Calif.). […]

purified spleen B cells = assay: B cell proliferation assay (CFSE); format: cell-based, mouse; conditions: 25 μg/ml, 72 h
Protocol: Proliferation assay. Splenic B cells were purified using CD19 mAb-coated microbeads (Miltenyi) and labeled with CFSE Vybrant™ CFDA SE fluorescent dye (5 μM; Invitrogen). Labeled B cells were then cultured in medium with LPS, CpG, or poly I:C (25 μg/ml) for 72 h and assessed by flow cytometry.

mouse spleen B cells = assay: B10pro cell maturation in vitro (mouse); format: cell-based; conditions: purified mouse spleen B cells, 48 h
Protocol: as §1

[2] = tested on: human blood mononuclear cells; assay: B10pro cell maturation in vitro (human); format: cell-based; conditions: 48 h, CpG = human ODN 2006
Protocol: as §1

[3] = tested on: purified mouse spleen B cells; assay: Secreted IL-10 ELISA; format: cell-based; conditions: 25 μg/ml, 72 h
Protocol: Cytokine ELISA. Secreted IL-10 was quantified by ELISA. Purified B cells (4×10^5) were cultured in 0.2 ml of complete medium with TLR agoninsts (25 μg/ml) in a 96-well flat-bottom tissue culture plates. Culture supernatant fluid IL-10 concentrations were quantified using IL-10 OptEIA ELISA kits (BD PharMingen) bfollowing the manufacturer's protocols. All assays were carried out using triplicate samples.

peritoneal B cells = assay: Peritoneal B cell depletion by CD20 mAb with TLR agonists; format: in vivo, mouse; conditions: MyD88^−/− versus C57BL/6 mice
Description: Immunofluorescence analysis. CD20 expression was visualized using biotin-conjugated mouse CD20 (MB20-11) mAb (Uchida et al., 2004b) plus phycoerythrin-Cy5 (PE-Cy5) streptavidin (eBioscience, San Diego, Calif.). Other mAbs included: B220 (RA3-6B2), CD1d (1B1), CD5 (53-7.3), CD19 (1D3), NK1.1 (PK136), and I-A/I-E (M5/114.15.2) from BD Biosciences (San Jose, Calif.). CD11b (M1/70), CD86 (GL1), F4/80 (BM8), IgM (II/41), Gr-1 (RB6-8C5), and IL-10 (JES5-16E3) mAbs were from eBioscience. TNF-α (MP6-XT22) mAb was from Biolegend (San Diego, Calif.). For immunofluorescence analysis, single cell suspensions (10^6 cells) were stained at 4° C. using predetermined optimal concentrations of mAb for 30 minutes as described (Sato et al., 1996). CD20 immunotherapy and TLR agonist treatments. Sterile mouse anti-mouse CD20 mAb (MB20-11, IgG2c) and unreactive mouse control IgG2a mAb were as described ([…]-Colin et al., 2008). In some experiments, mice were treated with anti-NK1.1 mAb ([…]) on day -4 and day 3 for N K cell depletion. Macrophage deficiency was generated by tail vein injections of clodronate-encapsulated liposomes (Sigma-Aldrich) or control PBS-encapsulated liposomes (Van Rooijen and Sanders, 1994) 0.2 ml given on day -1 and 0.1 ml given on days 2, 5, and 9 (FIG. 3B) or 0.2 ml given on days -2, 1, and 4 (FIG. 3C). […]

[4] = compared with parent poly I:poly C; cited from earlier work
macrophages = assay: In vitro assay of antibody-dependent phagocytosis; format: cell-based, mouse
Protocol: In vitro assay of antibody-dependent phagocytosis. Spleen B cells were purified by MACS B cell isolation (Miltenyi Biotech), labeled with CFSE Vybrant™ CFDA SE fluorescent dye (5 μM; Invitrogen) and cultured over night in complete medium. CFSE-labeled B cells were incubated with CD20 mAb (MB20-11) on ice for 1 h, and washed with complete medium to remove unbound mAb. Macrophages were isolated from the peritoneal cavity of thioglycolate-treated mice by lavage. Peritineal macrophages were further purified by adherence to plastic before culture with or without poly I:C (25 μg/ml) in complete medium at 37° C. in a 5% CO2 atmosphere for 18 h. Macrophages and B cells were mixed at a 1:1 ratio and cultured for 2.5 h. The cell mixture was then stained with PE-conjugated CD11b mAb with the percentage of CFSE^+CD11b^+ (double-positive cells) analyzed by flow cytometry.

[5] = 10^5 BL3750 cells day 0, control mAb plus TLR agonist on days 1, 7, 14 and 21

Row | Substance | reducing tumor growth in the mouse model (BL3750 lymphoma cells; compared with Poly (I:C)) | TNF-α production by monocytes [1] | FcγRII/III expression by innate effector cells (FcγRII/III) | B cell proliferation (purified spleen B cells) | B10pro cell maturation into IL-10-competent B10 cells (mouse spleen B cells) | B10pro cell maturation into IL-10-competent B10 cells [2] | IL-10 secretion [3] | ability to enhance peritoneal B cell depletion by CD20 mAb (peritoneal B cells) | toxicity [4] | effect on mouse survival (BL3750 lymphoma cells; [5]) | median survival (BL3750 lymphoma cells; [5]) | phagocytic capacity of macrophages (macrophages; macrophages from TLR3^−/− or TRIF^−/− mice) | macrophage phagocytosis of CD20 mAb-coated B cells (macrophages; wild type macrophages, poly I:C 25 μg/ml 18 h, 1:1, 2.5 h)
1 | polyadenylic-polyuridylic acid [Poly (A:U)] | not as effective as Poly (I:C) |  |  |  |  |  |  |  |  |  |  |  | 
2 | CpG: CpG ODN 1668 (5′tccATGACGTTCCTGAtgcT3′, bases in lower case are phosphorothioate); TLR9 agonist (DNA TCCATGACGTTCCTGATGCT; DNA, linkages s3 o13 s3 (s phosphorothioate, o phosphodiester), methylation of C not given here) |  | induced significant TNF-α production | higher levels of FcγRII/III expression | proliferated significantly | induced significant numbers of B10pro cells to mature | induced significant numbers of B10pro cells to mature | induced IL-10 secretion | significantly reduced by MyD88-deficiency |  |  |  |  | 
3 | poly I:poly C12U [Ampligen] |  |  |  |  |  |  |  |  | lower toxicity |  |  |  | 
4 | polyinosinic-polycytidylic acid [poly I:C] |  | induced significant TNF-α production | higher levels of FcγRII/III expression | did not proliferate | without effect | without effect | without effect |  |  | significant affect on mouse survival | 33 days | unable to augment | significantly enhanced

Reference: patent US9814740B2, “Methods and compositions combining immunotherapy with monocyte activation” (Duke University, priority 2010, dated 2017)
